Measurements from patent US6534676B2, “Method to treat chronic heart failure and/or elevated cholesterol levels using 3,5-diiodothyropropionic acid and method to prepare same” (The Arizona Board of Regents on Behalf of the University of …, priority 2001, dated 2003).

Columns and labels:
[1] = Heart failure patients: serum thyroid function tests; format: in vivo, human; conditions: for Thyrotropin: baseline 2.47 ± 0.6; for FreeT4: baseline 1.19 ± 0.1; for ReverseT3: baseline 197 ± 27
Experimental: All patients were hospitalized before initiating treatment and a right heart catheterization, radionuclide ejection fraction and echocardiogram were performed. Serum samples were drawn for measurement of thyrotropin, total T4, free T4, and reverse T3.
DITPA cross-reacted with antibodies for detection of T3, which consequently was not measured. Renal and hepatic function tests also were performed. Patients were randomly assigned in double-blind fashion to receive either DITPA at a dosage of 1.875 mg/kg daily or placebo in two or three divided doses. For the first four days of drug administration patients were monitored on a telemetry unit. Thereafter, weekly electrocardiograms were performed and patients were examined for changes in thyroid or cardiac status or evidence of drug toxicity.
At the end of two weeks an echocardiogram was obtained. If there was no clinical evidence of progression of heart failure or development of an arrhythmia the dose of DITPA was increased to 3.75 mg/kg daily. After an additional two weeks of treatment with the higher dosage of the drug patients were readmitted to the hospital and the tests performed in the initial evaluation were repeated.
Right heart catheterization was performed after the patient had been fasted overnight; no premedication was given. Pulmonary artery, pulmonary capillary wedge and right heart pressures were measured with a 7 Fr Swan-Ganz catheter introduced into the right femoral vein. Blood pressures were recorded with an automated arm cuff system. After an initial stabilization period of 20 to 30 minutes, the resting hemodynamic measurements were obtained. Thermodilution cardiac output measurements were averaged from five recordings after discarding the highest and lowest values. All blood tests were performed in the Clinical Pathology Laboratory at the Southern Arizona Veterans Administration Health Care System.

[2] = post-infarction models, alone or with an angiotensin I-converting enzyme inhibitor; cited from earlier work
[3] = tested on: nuclear T3 receptors of the c-erbA proto-oncogene family; conditions: background statement; cited from earlier work
[4] = normal primates; cited from earlier work
[5] = Heart failure patients: serum lipid levels; format: in vivo, human; conditions: for LDL-cholesterol: text baseline 107.3±42.8 mg/dL; for HDL Cholesterol / Triglyceride: serum; for HDL Cholesterol: baseline 32.8 ± 2.8; for Triglyceride: baseline 248.7 ± 40.4
Experimental: DITPA cross-reacted with antibodies for detection of T3, which consequently was not measured. Renal and hepatic function tests also were performed. Patients were randomly assigned in double-blind fashion to receive either DITPA at a dosage of 1.875 mg/kg daily or placebo in two or three divided doses. For the first four days of drug administration patients were monitored on a telemetry unit. Thereafter, weekly electrocardiograms were performed and patients were examined for changes in thyroid or cardiac status or evidence of drug toxicity. At the end of two weeks an echocardiogram was obtained. If there was no clinical evidence of progression of heart failure or development of an arrhythmia the dose of DITPA was increased to 3.75 mg/kg daily. After an additional two weeks of treatment with the higher dosage of the drug patients were readmitted to the hospital and the tests performed in the initial evaluation were repeated. Right heart catheterization was performed after the patient had been fasted overnight; no premedication was given. Pulmonary artery, pulmonary capillary wedge and right heart pressures were measured with a 7 Fr Swan-Ganz catheter introduced into the right femoral vein. Blood pressures were recorded with an automated arm cuff system. After an initial stabilization period of 20 to 30 minutes, the resting hemodynamic measurements were obtained. Thermodilution cardiac output measurements were averaged from five recordings after discarding the highest and lowest values. All blood tests were performed in the Clinical Pathology Laboratory at the Southern Arizona Veterans Administration Health Care System.

[6] = post-infarction rats, border zone around the infarct; cited from earlier work
[7] = Dose-ranging study of DITPA in normal volunteers: clinical variables and tolerability; format: in vivo, human; conditions: for Weight: normal volunteers n=7, oral, baseline 84.2 ± 2.6; for Weight / Heart Rate / Diastolic Blood Pressure / Systolic Blood Pressure: mean ± SE; for Heart Rate: baseline 55.4 ± 2.9; for Diastolic Blood Pressure: baseline 77.1 ± 3.5; for Systolic Blood Pressure: baseline 121.3 ± 4.4
Experimental: In clinical trials discussed below wherein DITPA was orally administered to volunteers and patients, the DITPA was mixed under the supervision of a registered pharmacist with lactose and packed into gelatin capsules containing 50 mg of the active ingredient. Identical capsules were packed with lactose to serve as placebo medication.
A dose-ranging study was performed with seven (7) normal volunteers. Study participants comprised men between the ages of 18 and 65 years of age. Before participating in the study, a complete physical examination, electrocardiogram, and echocardiogram were obtained. A complete blood count (CBC), blood chemistries (including liver enzymes and lipids profile), and thyroid function studies (total T3, total T4, free T4, rT3, and thyrotropin) were measured.
On day 1, these normal volunteers were started on 1.875 mg/kg in two divided doses per day. This treatment regimen was continued for two weeks. At the end of the second week, the initial laboratory studies were repeated. The dose was then doubled to 3.75 mg/kg and the volunteers were treated for two additional weeks. At the end of this time physical examination and all laboratory variables again were measured.
Volunteer data were analyzed using Student's paired t-test. Baseline data in DITPA and placebo groups were compared by Student's unpaired t-test. Comparison of placebo and drug treated groups was made by repeated measures ANOVA (SPSS Version 9.5, SPSS Chicago, 11). If P values for drug-time interactions were significant a priori contrasts were performed of the drug-time interaction for two weeks versus baseline. When data were available only at baseline and four week, comparisons were made by difference scores. Baseline values for each participant were subtracted from values after four weeks of treatment and the differences between DITPA and placebo treatments then were compared. P values by two-tailed testing less than 0.05 were considered to be significant.
As noted above, seven normal volunteers received DITPA at two dosage levels for two and four weeks.

[8] = serum, after 2 weeks (1.875 mg/kg daily)
[9] = serum, after 4 weeks (3.75 mg/kg daily)
[10] = heart failure patients, after four weeks
[11] = heart failure patients, after two weeks
[12] = after 2 weeks (1.875 mg/kg daily)
[13] = after 4 weeks (3.75 mg/kg daily)
[14] = normal volunteers, after 2 weeks (1.875 mg/kg/day)
[15] = normal volunteers, after 4 weeks (3.75 mg/kg/day)

In the case of `O=C(O)CCc1cc(I)c(Oc2ccc(O)cc2)c(I)c1` [DITPA, 3,5-Diiodothyropropionic acid], the Thyrotropin ([1]; heart failure patients n=9, serum, after 2 weeks (1.875 mg/kg daily)) is reported as 0.04 ± 01^++ mU/L, the FreeT4 [1, 8] is reported as 1.17 ± 0.1^ ng/dL and the ReverseT3 [1, 8] is reported as 477 ± 83^++ ng/dL. It also gave a FreeT4 [1, 9] of 1.17 ± 0.15 ng/dL, a Thyrotropin [1, 9] of 0.018 ± 0.0004 mU/L and a ReverseT3 [1, 9] of 559 ± 108 ng/dL. For the same compound, the “left ventricular (LV) performance” value [2] was “improve left ventricular (LV) performance”, the “binding to nuclear T3 receptors” value [3] was “binds” and the “in vivo force-frequency and relaxation-frequency relationships” value [4] was “enhances the in vivo force-frequency and relaxation-frequency relationships”. The cholesterol ([5]; heart failure patients n=9, serum, after 2 weeks (1.875 mg/kg daily), baseline 198.9 ± 19.7) was 160.6 ± 14.3^++ ng/dL, the LDL-cholesterol ([5]; heart failure patients, after 4 weeks) was 80.5 ± 13.7 mg/dL and the “decrease in LDL-cholesterol” value [5, 10] was 25%. For the same compound, the decrease in cholesterol [5, 10] was 24%, the “decrease in serum triglycerides” value ([5]; heart failure patients, after four weeks, P=0.005) was 35% and the cholesterol ([5]; heart failure patients, after four weeks, text baseline 185.8±46.9 mg/dL, P=0.013) was 140.7 ± 16.2 mg/dL. The “average decrease in LDL-cholesterol” value [5, 11] was 17%, the “average decrease in cholesterol” value [5, 11] was 14% and the “decrease in serum triglycerides” value ([5]; heart failure patients, after two weeks, P<0.05) was 11%. The cholesterol ([5]; heart failure patients, after two weeks, text baseline 185.8±46.9 mg/dL, P<0.05) was 160.6 ± 14.3 mg/dL, the LDL-cholesterol ([5]; heart failure patients, at two weeks) was 89.4 ± 12.7 mg/dL and the “HDL Cholesterol” value [5, 12] was 30.6 ± 2.0 mg/dL. For the same compound, the Triglyceride [5, 12] was 203.0 ± 30.4^++ mg/dL, the “HDL Cholesterol” value [5, 13] was 31.4 ± 3.1 mg/dL and the Triglyceride [5, 13] was 143.7 ± 21.1 mg/dL. For the same compound, the “patients in whom LDL-cholesterol decreased” value ([5]; treated for 4 weeks) was 8 of 9, the capillary growth [6] was “increase in capillary growth” and the echocardiographic parameters ([7]; normal volunteers) was “not changed significantly”. For the same compound, the Weight ([7]; after 2 weeks (1.875 mg/kg/day)) was 83.5 ± 2.6 kg, the Weight ([7]; after 4 weeks (last 2 weeks 3.75 mg/kg/day)) was 83.6 ± 2.6 kg and the adverse effects ([7]; normal volunteers, 1.875 then 3.75 mg/kg, four weeks) was “no adverse effects were noted”. For the same compound, the “Heart Rate” value [7, 14] was 58.1 ± 3.2 beats/min, the “Diastolic Blood Pressure” value [7, 14] was 76.1 ± 2.9 mm Hg and the “Systolic Blood Pressure” value [7, 14] was 122.0 ± 5.4 mm Hg. For the same compound, the “Heart Rate” value [7, 15] was 64.3 ± 3.4 beats/min, the “Diastolic Blood Pressure” value [7, 15] was 71.6 ± 3.8 mm Hg and the “Systolic Blood Pressure” value [7, 15] was 116.3 ± 6.1 mm Hg. The “changes in blood pressure and pulse rate” value ([7]; normal volunteers, at either dose) was “no significant changes” and the tolerability ([7]; normal volunteers, both doses) was “well tolerated”.
